Reference: patent US11952384B2, “Anti-tumor compound and preparation method and use thereof” (DUALITY BIOLOGICS (SUZHOU) CO., LTD., priority 2020, dated 2024)

Legend:
[1] = test system: JIMT-1 cells; assay: Inhibition of in vitro proliferation of tumor cells by compounds (CTG, 6 days); format: cell-based; conditions: Homo sapiens, JIMT-1, 144 h, read-out: JIMT-1 IC50 (nM)
Description: (§1) To test the inhibitory activity of the pharmaceutical compounds on the in vitro proliferation of NCI-N87, JIMT-1 and MBA-MB-231 tumor cells. The cells were treated with the compounds at different concentrations in vitro, and after 6 days of culture, the proliferation of cells was detected using the CTG (CellTiter-Glo® Luminescent Cell Viability Assay, Promega, Cat. No. G7558) reagent, and the in vitro activity of the compounds was evaluated according to the IC50 value.
(§2) In the following, the test for the inhibition of the in vitro proliferation of NCI-N87 cells was taken as an example to illustrate the method of the present application for testing the inhibitory activity of the compounds of the present application on the in vitro proliferation of tumor cells. The method was also applicable to, but not limited to, the test for the inhibitory activity on the in vitro proliferation of other tumor cells. • 1. Culturing of cells: NCI-N87 cells were cultured in RPMI-1640 medium containing 10% FBS. • 2. Preparation of cells: NCI-N87 cells in logarithmic phase were taken, washed with PBS once, and digested with 2-3 mL of trypsin for 2-3 min. After the cells were digested completely, 10-15 mL of cell culture was added to elute the digested cells. The eluate was centrifuged at 1000 rpm for 5 min, and the supernatant was discarded. The resulting cells were resuspended in 10-20 mL of cell culture to obtain a single cell suspension. • 3. Cell plating: the NCI-N87 single cell suspension was mixed well and adjusted to a viable cell density of 6×10^4 cells/mL with cell culture. The cell suspension with the adjusted density was mixed well and added to a 96-well cell culture plate at 50 μL/well. The culture plate was incubated in an incubator for 18 h (37° C., 5% CO2). • 4. Preparation of compounds: the compounds were dissolved in DMSO to obtain stock solutions at an initial concentration of 10 mM. There were 8 concentrations in total for the small molecule compounds: 300 nM, 100 nM, 30 nM, 10 nM, 3 nM, 1 nM, 0.3 nM, and 0.1 nM. • 5. Sample adding: the prepared samples to be detected at different concentrations were added to the culture plate, and two duplicate wells were set for each sample. The culture plate was incubated in an incubator for 6 days (37° C., 5% CO2). • 6. Color developing: the 96-well cell culture plate was taken out, added with the CTG reagent at 50 μL/well, and incubated at room temperature for 10 min. • 7. Plate reading: the 96-well cell culture plate was taken out, placed in a microplate reader, and measured for the chemiluminescence using the microplate reader. Data Analysis
(§3) Data were processed and analyzed using Microsoft Excel and Graphpad Prism 5.
(§4) To test the inhibitory activity of the pharmaceutical compounds on the in vitro proliferation of NCI-N87, JIMT-1 and MBA-MB-231 tumor cells. The cells were treated with compounds at different concentrations in vitro, and after 6 days of culture, the proliferation of cells was detected using CTG (CellTiter-Glo® Luminescent Cell Viability Assay, Promega, Cat. No. G7558) reagents, and the in vitro activity of the compounds was evaluated according to the IC50 value. • 1. Culturing of cells: NCI-N87/JIMT-1/MBA-MB-231 cells were cultured in RPMI-1640 medium containing 10% FBS. • 2. Preparation of cells: NCI-N87/JIMT-1/MBA-MB-231 cells in logarithmic phase were taken, washed with PBS once, and digested with 2-3 mL of trypsin for 2-3 min. After the cells were digested completely, 10-15 mL of cell culture was added to elute the digested cells. The eluate was centrifuged at 1000 rpm for 5 min, and the supernatant was discarded. The resulting cells were resuspended in 10-20 mL of cell culture to obtain a single cell suspension. • 3. Cell plating: the NCI-N87/JIMT-1/MBA-MB-231 single cell suspension was mixed well and adjusted to a viable cell density of 6×10^4 cells/mL with cell culture. […]

[2] = test system: MDA-MB-231 cells; assay: as above; format: cell-based; conditions: Homo sapiens, MDA-MB-231, 144 h, read-out: MDA-MB-231 IC50 (nM)
Description: To test the inhibitory activity of the pharmaceutical compounds on the in vitro proliferation of NCI-N87, JIMT-1 and MBA-MB-231 tumor cells. The cells were treated with compounds at different concentrations in vitro, and after 6 days of culture, the proliferation of cells was detected using CTG (CellTiter-Glo® Luminescent Cell Viability Assay, Promega, Cat. No. G7558) reagents, and the in vitro activity of the compounds was evaluated according to the IC50 value. • 1. Culturing of cells: NCI-N87/JIMT-1/MBA-MB-231 cells were cultured in RPMI-1640 medium containing 10% FBS. • 2. Preparation of cells: NCI-N87/JIMT-1/MBA-MB-231 cells in logarithmic phase were taken, washed with PBS once, and digested with 2-3 mL of trypsin for 2-3 min. After the cells were digested completely, 10-15 mL of cell culture was added to elute the digested cells. The eluate was centrifuged at 1000 rpm for 5 min, and the supernatant was discarded. The resulting cells were resuspended in 10-20 mL of cell culture to obtain a single cell suspension. • 3. Cell plating: the NCI-N87/JIMT-1/MBA-MB-231 single cell suspension was mixed well and adjusted to a viable cell density of 6×10^4 cells/mL with cell culture. The cell suspension with the adjusted density was mixed well and added to a 96-well cell culture plate at 50 μL/well. The culture plate was incubated in an incubator for 18 h (37° C., 5% CO2). • 4. Preparation of compounds: the compounds were dissolved in DMSO to obtain stock solutions at an initial concentration of 10 mM. There were 8 concentrations in total for the small molecule compounds: 300 nM, 100 nM, 30 nM, 10 nM, 3 nM, 1 nM, 0.3 nM, and 0.1 nM. • 5. Sample adding: the prepared samples to be detected at different concentrations were added to the culture plate, and two duplicate wells were set for each sample. The culture plate was incubated in an incubator for 6 days (37° C., 5% CO2). • 6. Color developing: the 96-well cell culture plate was taken out, added with the CTG reagent at 50 μL/well, and incubated at room temperature for 10 min. • 7. Plate reading: the 96-well cell culture plate was taken out, placed in a microplate reader, and measured for the chemiluminescence using the microplate reader. Data analysis: data were processed and analyzed using Microsoft Excel and Graphpad Prism 5.

[3] = molecular target: T1, P-gp (Homo sapiens, UniProt P08183); assay: Study on transporter substrates in Caco-2 cell model; format: in vitro ADME; conditions: Caco-2 cell model
T1 construct: endogenous in cells; host or cells: Caco-2
Description: The resistance of each well was recorded. […] 2. […] The plate was vortexed for 10 min. The samples were centrifuged. […] HBSS was added to the basolateral compartment. […] 3. Data Analysis
Data were calculated using Microsoft Excel.

[4] = molecular target: T2, BCRP (Homo sapiens, UniProt Q9UNQ0); assay: as above
T2 sequence (Q9UNQ0 1-655): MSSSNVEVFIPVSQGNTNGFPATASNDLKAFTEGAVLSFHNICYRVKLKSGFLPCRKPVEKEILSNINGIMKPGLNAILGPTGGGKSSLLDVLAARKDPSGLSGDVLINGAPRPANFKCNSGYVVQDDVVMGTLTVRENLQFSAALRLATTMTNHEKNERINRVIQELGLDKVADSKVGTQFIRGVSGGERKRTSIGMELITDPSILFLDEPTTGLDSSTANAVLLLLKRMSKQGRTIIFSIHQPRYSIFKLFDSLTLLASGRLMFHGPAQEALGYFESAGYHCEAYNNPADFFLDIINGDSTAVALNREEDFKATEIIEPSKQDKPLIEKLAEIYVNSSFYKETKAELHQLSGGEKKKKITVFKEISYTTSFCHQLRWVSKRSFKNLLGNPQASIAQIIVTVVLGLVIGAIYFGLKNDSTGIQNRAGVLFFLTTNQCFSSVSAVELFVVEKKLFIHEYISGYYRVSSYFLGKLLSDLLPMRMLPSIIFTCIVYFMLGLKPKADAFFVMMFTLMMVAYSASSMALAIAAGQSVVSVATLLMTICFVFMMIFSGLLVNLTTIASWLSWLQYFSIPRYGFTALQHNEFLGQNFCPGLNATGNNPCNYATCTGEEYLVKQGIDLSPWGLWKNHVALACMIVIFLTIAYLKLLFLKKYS
Description: To investigate whether the compounds of the present invention is a substrate for efflux transporters P-gp and BCRP in a Caco-2 cell model, thereby providing preclinical basis for analyzing the drug-drug interaction in pharmacokinetics.
• 1) Cell culture medium was added to each well of the Transwell. The HTS Transwell plate was incubated under conditions of 37° C. and 5% CO2 for 1 h prior to cell inoculation. • 2) Caco-2 cells were diluted with culture medium and the cell suspension was dispensed into filter wells of the 96-well HTS Transwell plate. […] The cell culture medium was changed periodically. • 3) Monolayer cell resistance was measured using the Millicell Epithelial Volt-Ohm detection system. The resistance of each well was recorded. After all wells were measured, the Transwell plate was put back into the incubator. TEER of each well was calculated according to the formula. The TEER value of each well should be greater than 230 ohm·cm^2. […] Preparation for Transporter Test • 1) The Caco-2 plate was taken out from the incubator. The monolayer cells were washed with pre-heated HBSS twice. The plate was then incubated at 37° C. for 30 min. • 2) Stock solutions of the compounds were prepared in DMSO and diluted with HBSS to obtain working solutions. Digoxin was used as a reference substrate for P-gp and rosuvastatin was used as a reference substrate for BCRP. Propranolol was used as a high permeability marker. • 3) The working solution (without inhibitor) was added to the Transwell insert (apical compartment) to determine the rate of drug transport in the apical to basolateral direction. The transfer buffer was added to the wells in the receiver plate (basolateral compartment). The working solution (without inhibitor) was added to the receiver plate wells (basolateral compartment) to determine the rate of drug transport in the basolateral to apical direction. The Transwell insert (apical compartment) was filled with the transport buffer. PSC833 was added to the apical and basolateral compartments to determine the rate of drug transport in the presence of P-gp inhibitors. • 4) The sample was transferred from the working solution to the quenching solution, and a sample with a time of 0 was prepared. The Transwell plate was incubated under conditions of 37° C. and 5% CO2 for 2 h. • 5) At the end of the transport cycle, the samples were transferred from the apical and basolateral wells into a new 96-well plate. Cold acetonitrile or methanol containing the appropriate internal standard (IS) was added to each well of the plate. The plate was vortexed for 10 min. The samples were centrifuged. The supernatant of an aliquot was mixed with an appropriate amount of ultrapure water (depending on the LC-MS/MS signal response and peak shape) prior to the LC-MS/MS analysis. • 6) The stock solution of lucifer yellow in DMSO was prepared and diluted with HBSS to determine the amount of lucifer yellow leakage after a 2-hour transport period. The lucifer yellow solution was added to the apical compartment. HBSS was added to the basolateral compartment. The plate was incubated at 37° C. for 30 min, and a certain amount of the solution was directly taken from the apical and basolateral wells and transferred to a new 96-well plate. The lucifer yellow fluorescence was measured in a fluorescence plate reader with 485 nm excitation and 530 nm emission (to monitor monolayer integrity).
Data were calculated using Microsoft Excel. The percentage of the compound remaining at each time point was estimated by determining the peak area ratio from the extracted ion chromatogram.
For drug transport analysis in the Caco-2 cell model, the apparent permeability coefficient (Papp) can be calculated according to the following formula, in cm/s:
[formula] • wherein the concentration C is in nM, the volume V is in μL, the time T is in s, and the area S is in cm^2.
The recovery rate is calculated according to the following formula:

[5] = test system: NCI-N87 cells; assay: Inhibition of in vitro proliferation of tumor cells by compounds (CTG, 6 days); format: cell-based; conditions: Homo sapiens, NCI-N87, 144 h, read-out: NCI-N87 IC50 (nM)
Description: as §1, §2, §3, §4

T1 sequence (P08183 whole entry): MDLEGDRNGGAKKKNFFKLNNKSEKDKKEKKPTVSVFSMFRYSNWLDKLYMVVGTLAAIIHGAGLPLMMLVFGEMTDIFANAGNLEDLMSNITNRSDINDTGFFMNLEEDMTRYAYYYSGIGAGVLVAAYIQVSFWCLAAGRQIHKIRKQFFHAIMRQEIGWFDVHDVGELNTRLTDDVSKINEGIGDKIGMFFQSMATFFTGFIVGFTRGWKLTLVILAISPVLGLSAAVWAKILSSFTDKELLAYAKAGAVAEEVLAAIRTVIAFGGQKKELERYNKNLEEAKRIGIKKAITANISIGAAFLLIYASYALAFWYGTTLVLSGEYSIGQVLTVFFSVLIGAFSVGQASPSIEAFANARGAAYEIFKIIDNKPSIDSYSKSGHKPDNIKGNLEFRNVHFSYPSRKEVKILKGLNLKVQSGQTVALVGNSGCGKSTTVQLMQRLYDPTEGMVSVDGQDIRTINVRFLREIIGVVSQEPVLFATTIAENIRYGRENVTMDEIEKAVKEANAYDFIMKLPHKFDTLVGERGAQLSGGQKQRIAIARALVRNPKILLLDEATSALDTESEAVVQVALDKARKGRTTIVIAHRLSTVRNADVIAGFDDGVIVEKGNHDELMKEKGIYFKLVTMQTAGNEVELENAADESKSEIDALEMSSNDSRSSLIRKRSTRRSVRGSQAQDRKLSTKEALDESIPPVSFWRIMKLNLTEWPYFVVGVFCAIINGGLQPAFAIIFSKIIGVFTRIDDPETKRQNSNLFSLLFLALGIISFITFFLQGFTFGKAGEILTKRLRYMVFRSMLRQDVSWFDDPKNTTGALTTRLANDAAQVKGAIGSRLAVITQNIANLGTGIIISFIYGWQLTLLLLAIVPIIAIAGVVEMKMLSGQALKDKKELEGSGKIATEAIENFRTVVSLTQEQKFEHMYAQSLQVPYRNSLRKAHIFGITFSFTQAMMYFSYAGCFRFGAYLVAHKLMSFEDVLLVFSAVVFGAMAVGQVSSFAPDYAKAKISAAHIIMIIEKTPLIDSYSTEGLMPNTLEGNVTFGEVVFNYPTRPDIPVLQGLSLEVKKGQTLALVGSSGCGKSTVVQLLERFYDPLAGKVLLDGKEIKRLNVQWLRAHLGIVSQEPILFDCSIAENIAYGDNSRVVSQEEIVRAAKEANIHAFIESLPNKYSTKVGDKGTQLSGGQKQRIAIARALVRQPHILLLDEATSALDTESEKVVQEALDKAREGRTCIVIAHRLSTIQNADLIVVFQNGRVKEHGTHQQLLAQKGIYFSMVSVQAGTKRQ

Structure (SMILES) | IC50 [1] [nM] | IC50 [2] [nM] | other results
CC[C@@]1(O)C(=O)OCc2c1cc1n(c2=O)Cc2c-1nc1cc(F)c(C)c3c1c2[C@@H](NC(=O)c1ccc(O)cn1)CC3 [P-II-24, N-((1S,9S)-9-ethyl-5-fluoro-9-hydroxy-4-methyl-10,13-dioxo-2,3,9,10,13,15-hexahydro-1H,12H-benzo[de]pyrano[3′,4′:6,7]indolizino[1,2-b]quinolin-1-yl)-5-hydroxypicolinamide] | 20.8 | 8.5 | 
CC[C@@]1(O)C(=O)OCc2c1cc1n(c2=O)Cc2c-1nc1cc(F)c(C)c3c1c2[C@@H](NC(=O)C[C@@H](N)CO)CC3 [P-III-29, (R)-3-amino-N-((1S,9S)-9-ethyl-5-fluoro-9-hydroxy-4-methyl-10,13-dioxo-2,3,9,10,13,15-hexahydro-1H,12H-benzo[de]pyrano[3′,4′:6,7]indolizino[1,2-b]quinolin-1-yl)-4-hydroxybutanamide] | 16.7 | 8.6 | 
CC[C@@]1(O)C(=O)OCc2c1cc1n(c2=O)Cc2c-1nc1cc(F)c(C)c3c1c2[C@@H](NC(=O)c1ccc(O)cc1)CC3 [P-II-23, N-((1S,9S)-9-ethyl-5-fluoro-9-hydroxy-4-methyl-10,13-dioxo-2,3,9,10,13,15-hexahydro-1H,12H-benzo[de]pyrano[3′,4′:6,7]indolizino[1,2-b]quinolin-1-yl)-4-hydroxybenzamide-1-carboxamide] |  | 7.7 | 
CC[C@@]1(O)C(=O)OCc2c1cc1n(c2=O)Cc2c-1nc1cc(F)c(C)c3c1c2[C@@H](NC(=O)CO)CC3 [Dxd, reference compound] |  |  | P-gp substrate [3]: not a transporter P-gp substrate; Recovery rate (%) AP-BL ([4]; Caco-2, KO143 +): 76.51%; Recovery rate (%) BL-AP ([4]; Caco-2, KO143 +): 74.87%; Efflux ratio ([4]; Caco-2, KO143 −): 74.03; Recovery rate (%) AP-BL ([4]; Caco-2, KO143 −): 57.76%; Recovery rate (%) BL-AP ([4]; Caco-2, KO143 −): 56.20%; Papp (A-B) (10^−6, cm/s) ([4]; Caco-2, KO143 −, 2 h): 0.07 10^−6, cm/s; Papp (B-A) (10^−6, cm/s) ([4]; Caco-2, KO143 −, 2 h): 4.82 10^−6, cm/s; BCRP substrate ([4]; Caco-2 cell model, from rate of change of efflux ratio): transporter BCRP substrate and Yes
CC[C@@]1(O)C(=O)OCc2c1cc1n(c2=O)Cc2c-1nc1cc(F)c(C)c3c1c2[C@@H](NC(=O)CCNC)CC3 [P-III-9, N-((1S,9S)-9-ethyl-5-fluoro-9-hydroxy-4-methyl-10,13-dioxo-2,3,9,10,13,15-hexahydro-1H,12H-benzo[de]pyrano[3′,4′:6,7]indolizino[1,2-b]quinolin-1-yl)-3-methylaminopropanamide] |  | 28.9 | 
CC[C@@]1(O)C(=O)OCc2c1cc1n(c2=O)Cc2c-1nc1cc(F)c(C)c3c1c2[C@@H](NC(=O)C[C@H](C)N)CC3 [P-III-28, (S)-3-amino-N-((1S,9S)-9-ethyl-5-fluoro-9-hydroxy-4-methyl-10,13-dioxo-2,3,9,10,13,15-hexahydro-1H,12H-benzo[de]pyrano[3′,4′:6,7]indolizino[1,2-b]quinolin-1-yl)butanamide] |  | 1.2 | 
CC[C@@]1(O)C(=O)OCc2c1cc1n(c2=O)Cc2c-1nc1cc(F)c(C)c3c1c2[C@@H](NC(=O)CS)CC3 [P-III-1, N-((1S,9S)-9-ethyl-5-fluoro-9-hydroxy-4-methyl-10,13-dioxo-2,3,9,10,13,15-hexahydro-1H,12H-benzo[de]pyrano[3′,4′:6,7]indolizino[1,2-b]quinolin-1-yl)-2-mercaptoacetamide] |  | 28.9 | 
CC[C@@]1(O)C(=O)OCc2c1cc1n(c2=O)Cc2c-1nc1cc(F)c(C)c3c1c2[C@@H](NC(=O)CC(C)(C)O)CC3 [P-III-21, N-((1S,9S)-9-ethyl-5-fluoro-9-hydroxy-4-methyl-10,13-dioxo-2,3,9,10,13,15-hexahydro-1H,12H-benzo[de]pyrano[3′,4′:6,7]indolizino[1,2-b]quinolin-1-yl)-3-hydroxy-3-methylbutanamide] | 2.87 | 2.88 | IC50 [5]: 4.75 nM
